Patent US12600728B2, “Interleukin-17 inhibitors” (priority 2020, dated 2026)

Target: biotinylated human IL-17A / AF647-labeled human IL-17RA (Homo sapiens, UniProt Q16552)
Experiment: Human IL-17A×IL-17RA TR-FRET assay
Type: binding
Details: IL17AA FRET/ IL17Rawt IC50, TR-FRET, 5 nM IL-17A, 30 nM IL-17RA
Procedure: Human IL-17A×IL-17RA TR-FRET Assay
Each compound concentration is tested in duplicate.
The final total assay volume is 10 μL.
Each plate contains test compounds in columns 1-22 and controls in columns 23 and 24. The neutral control (NC) contains all the assay components, but DMSO instead of test compound. […] The fluorescence values for emission at 615 nm and 665 nm are loaded to the evaluation software Helios.
From the activity data at each compound concentration, the IC50 values are obtained using the 4-parameter logistic function (“Hill-slope model”) of Helios.

Sequence of biotinylated human IL-17A / AF647-labeled human IL-17RA (Q16552 24-155): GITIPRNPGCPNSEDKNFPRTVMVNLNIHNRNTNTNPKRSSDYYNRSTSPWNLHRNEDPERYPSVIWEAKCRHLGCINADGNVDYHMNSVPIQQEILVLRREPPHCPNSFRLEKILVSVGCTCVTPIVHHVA

| SMILES | IC50 |
| --- | --- |
| Cc1c(-c2ccc(NC(=O)[C@@H](NC(=O)c3ccnn3C)C3CCC(F)(F)CC3)cc2)cc(Cl)c[n+]1[O-] [Example 177, (S)-5-chloro-3-(4-(2-(4,4-difluorocyclohexyl)-2-(1-methyl-1H-pyrazole-5-carboxamido)acetamido)phenyl)-2-methylpyridine 1-oxide] | 2.11 µM |
| CCn1nccc1C(=O)NC(C(=O)Nc1ccc(-c2c(C(F)(F)F)cc[n+]([O-])c2C)cc1)C1CC2CC2C1 (single isomer, unassigned) [Example 154] | 6.3 µM |

Same assay, conditions: IL17AA FRET/ IL17Rawt IC50, TR-FRET, biotinylated human IL-17A 5 nM, AF647-labeled human IL-17RA 30 nM

| SMILES | IC50 |
| --- | --- |
| Cc1c[n+]([O-])ccc1-c1ccc(NC(=O)[C@@H](NC(=O)c2ccnn2C)C2CCCCC2)cc1 [Example 111, (S)-4-(4-(2-cyclohexyl-2-(1-methyl-1H-pyrazole-5-carboxamido)acetamido)phenyl)-3-methylpyridine I-oxide] | 4.78 µM |
| Cc1c(-c2ccc(NC(=O)C(NC(=O)c3ccnn3C)C3CC4C(C3)C4(F)F)cc2)c(Cl)cc[n+]1[O-] (single isomer, unassigned) [Example 54b] | 10.9 µM |

Same assay, conditions: TR-FRET, 5 nM IL-17A, 30 nM IL-17RA; read-out: IL17AA FRET/ IL17Rawt IC50

| SMILES | IC50 |
| --- | --- |
| Cc1cc[n+]([O-])c(C)c1-c1ccc(NC(=O)[C@@H](NC(=O)c2ccc3n2CCNC3)[C@H]2CCCC(F)(F)C2)cc1 [Example 208, 3-(4-((S)-2-((S)-3,3-difluorocyclohexyl)-2-(1,2,3,4-tetrahydropyrrolo[1,2-a]pyrazine-6-carboxamido)acetamido)phenyl)-2,4-dimethylpyridine 1-oxide] | 0.316 µM |
| Cc1cc[n+]([O-])c(C)c1-c1ccc(NC(=O)[C@@H](NC(=O)c2conc2CO)C2CCC(F)(F)CC2)cc1 [Example 155, (S)-3-(4-(2-(4,4-difluorocyclohexyl)-2-(3-(hydroxymethyl)isoxazole-4-carboxamido)acetamido)phenyl)-2,4-dimethylpyridine 1-oxide] | 1.15 µM |
| Cc1cc[n+]([O-])c(C)c1-c1ccc(NC(=O)C(NC(=O)c2ccc3n2CCN(C)C3)C(C)c2ccccc2Cl)cc1 (centres unmarked) [Example 212, 3-(4-(3-(2-chlorophenyl)-2-(2-methyl-1,2,3,4-tetrahydropyrrolo[1,2-a]pyrazine-6-carboxamido)butanamido)phenyl)-2,4-dimethylpyridine 1-oxide] | 0.502 µM |
| Cc1c(-c2ccc(NC(=O)[C@@H](NC(=O)c3ccc4n3CCN(C)C4)[C@H]3CCCC(F)(F)C3)cc2)c(C(F)(F)F)cc[n+]1[O-] [Example 166, 3-(4-((S)-2-((S)-3,3-difluorocyclohexyl)-2-(2-methyl-1,2,3,4-tetrahydropyrrolo[1,2-a]pyrazine-6-carboxamido)acetamido)phenyl)-2-methyl-4-(trifluoromethyl)pyridine 1-oxide] | 0.358 µM |
| Cc1cc[n+]([O-])c(C)c1-c1ccc(NC(=O)[C@@H](NC(=O)c2ccc3n2CCN(C)C3)C2CCC(F)CC2)cc1 (stereo partly drawn) [Example 214, 3-(4-((2S)-2-(4-fluorocyclohexyl)-2-(2-methyl-1,2,3,4-tetrahydropyrrolo[1,2-a]pyrazine-6-carboxamido)acetamido)phenyl)-2,4-dimethylpyridine 1-oxide] | 0.69 µM |
| Cc1cc[n+]([O-])c(C)c1-c1ccc(NC(=O)C(NC(=O)c2ccc3n2CCNC3)C2CCC(C)CC2)cc1 [Example 220, 2,4-dimethyl-3-(4-((S)-2-((1r,4S)-4-methylcyclohexyl)-2-(1,2,3,4-tetrahydropyrrolo[1,2-a]pyrazine-6-carboxamido)acetamido)phenyl)pyridine 1-oxide] | 2.31 µM |
| Cc1cc[n+]([O-])c(C)c1-c1ccc(NC(=O)C(NC(=O)c2ccc3n2CCN(C)C3)C2CC3CC3C2)cc1 (single isomer, unassigned) [Example 150] | 0.464 µM |
| Cc1cc[n+]([O-])c(C)c1-c1ccc(NC(=O)[C@@H](NC(=O)c2ccc3n2CCN(C)C3)[C@H]2CCCC(F)(F)C2)cc1 [Example 152, 3-(4-((S)-2-((S)-3,3-difluorocyclohexyl)-2-(2-methyl-1,2,3,4-tetrahydropyrrolo[1,2-a]pyrazine-6-carboxamido)acetamido)phenyl)-2,4-dimethylpyridine 1-oxide] | 0.391 µM |
| Cc1cc[n+]([O-])c(C)c1-c1ccc(NC(=O)[C@@H](NC(=O)c2ccc3n2CCN(C)C3)C2CCCC2)cc1 [Example 153, (S)-3-(4-(2-cyclopentyl-2-(2-methyl-1,2,3,4-tetrahydropyrrolo[1,2-a]pyrazine-6-carboxamido)acetamido)phenyl)-2,4-dimethylpyridine 1-oxide] | 0.798 µM |
| Cc1cc[n+]([O-])c(C)c1-c1ccc(NC(=O)C(NC(=O)c2ccnn2C)C2CC(F)CC(F)C2)cc1 (centres unmarked) [Example 222, 3-(4-(2-(3,5-difluorocyclohexyl)-2-(1-methyl-1H-pyrazole-5-carboxamido)acetamido)phenyl)-2,4-dimethylpyridine 1-oxide] | 7.29 µM |
| CC(=O)N1CCn2c(ccc2C(=O)N[C@H](C(=O)Nc2ccc(-c3c(C(F)(F)F)cc[n+]([O-])c3C)cc2)C2CCC(F)(F)CC2)C1 [Example 210, (S)-3-(4-(2-(2-acetyl-1,2,3,4-tetrahydropyrrolo[1,2-a]pyrazine-6-carboxamido)-2-(4,4-difluorocyclohexyl)acetamido)phenyl)-2-methyl-4-(trifluoromethyl)pyridine 1-oxide] | 0.478 µM |

Same assay, conditions: TR-FRET, 5 nM IL-17A, 30 nM IL-17RA; reference examples (pyridines); read-out: IL17AA FRET/ IL17RAwt IC50

| SMILES | IC50 |
| --- | --- |
| Cc1nocc1C(=O)N[C@H](C(=O)Nc1ccc(-c2c(C(F)(F)F)ccnc2C)cc1)[C@H]1CCCC(F)(F)C1 [compound 143, N-((S)-1-((S)-3,3-difluorocyclohexyl)-2-((4-(2-methyl-4-(trifluoromethyl)pyridin-3-yl)phenyl)amino)-2-oxoethyl)-3-methylisoxazole-4-carboxamide, reference compound] | 0.851 µM |
| CCn1nccc1C(=O)N[C@H](C(=O)Nc1ccc(-c2c(C)ccnc2C)cc1)[C@H]1CC[C@H](C(F)(F)F)CC1 [compound 141, N-((S)-2-((4-(2,4-dimethylpyridin-3-yl)phenyl)amino)-2-oxo-1-((1r,4S)-4-(trifluoromethyl)cyclohexyl)ethyl)-1-ethyl-1H-pyrazole-5-carboxamide, reference compound] | 2.63 µM |
| CCc1nocc1C(=O)N[C@H](C(=O)Nc1ccc(-c2c(Cl)ccnc2C)cc1)[C@H]1CCCC(F)(F)C1 [compound 140, N-((S)-2-((4-(4-chloro-2-methylpyridin-3-yl)phenyl)amino)-1-((S)-3,3-difluorocyclohexyl)-2-oxoethyl)-3-ethylisoxazole-4-carboxamide, reference compound] | 1.22 µM |
| CCc1nocc1C(=O)N[C@H](C(=O)Nc1ccc(-c2c(C)ccnc2C)cc1)[C@H]1CC[C@H](C(F)(F)F)CC1 [compound 142, N-((S)-2-((4-(2,4-dimethylpyridin-3-yl)phenyl)amino)-2-oxo-1-((1r,4S)-4-(trifluoromethyl)cyclohexyl)ethyl)-3-ethylisoxazole-4-carboxamide, reference compound] | 4.38 µM |

Same assay, conditions: TR-FRET, biotinylated human IL-17A 5 nM, AF647-labeled human IL-17RA 30 nM; read-out: IL17AA FRET/ IL17Rawt IC50

| SMILES | IC50 |
| --- | --- |
| Cc1cc[n+]([O-])cc1-c1ccc(NC(=O)[C@@H](NC(=O)c2ccnn2C)C2CCCCC2)cc1 [Example 81, (S)-3-(4-(2-cyclohexyl-2-(1-methyl-1H-pyrazole-5-carboxamido)acetamido)phenyl)-4-methylpyridine 1-oxide] | 3.74 µM |
| Cc1c(-c2ccc(NC(=O)[C@@H](NC(=O)c3ccc4n3CCN(C)C4)C3CCC(F)CC3)cc2)c(Cl)cc[n+]1[O-] (mixture of isomers) [Example 129, 4-chloro-3-(4-((2S)-2-(4-fluorocyclohexyl)-2-(2-methyl-1,2,3,4-tetrahydropyrrolo[1,2-a]pyrazine-6-carboxamido)acetamido)phenyl)-2-methylpyridine 1-oxide] | 0.382 µM |
| Cc1cc[n+]([O-])c(F)c1-c1ccc(NC(=O)[C@@H](NC(=O)c2ccnn2C)C2CCCCC2)cc1 [Example 114, (S)-3-(4-(2-cyclohexyl-2-(1-methyl-1H-pyrazole-5-carboxamido)acetamido)phenyl)-2-fluoro-4-methylpyridine 1-oxide] | 2.79 µM |
| CCn1nccc1C(=O)N[C@@H](C(=O)Nc1ccc(-c2c(Cl)cc[n+]([O-])c2C)cc1)C1CCC(F)(F)CC1 (single isomer, unassigned) [Example 13b] | 30.4 µM |
| Cc1cc[n+]([O-])c(C)c1-c1ccc(NC(=O)[C@@H](NC(=O)c2ccc3n2CCN(C2COC2)C3)[C@H]2CC[C@H](C(F)(F)F)CC2)cc1 [Example 132, 2,4-dimethyl-3-(4-((S)-2-(2-(oxetan-3-yl)-1,2,3,4-tetrahydropyrrolo[1,2-a]pyrazine-6-carboxamido)-2-((1r,4S)-4-(trifluoromethyl)cyclohexyl)acetamido)phenyl)pyridine 1-oxide] | 0.866 µM |
| Cc1c[n+]([O-])cc(C)c1-c1ccc(NC(=O)[C@@H](NC(=O)c2ccnn2C2CC2)C2CCCCC2)cc1 [Example 98, (S)-4-(4-(2-cyclohexyl-2-(1-cyclopropyl-1H-pyrazole-5-carboxamido)acetamido)phenyl)-3,5-dimethylpyridine 1-oxide] | 1.4 µM |
| Cc1cc[n+]([O-])c(C)c1-c1ccc(NC(=O)[C@@H](NC(=O)c2ccc3n2CCN(C2CC2)C3)C2CCCCC2)cc1 [Example 131, (S)-3-(4-(2-cyclohexyl-2-(2-cyclopropyl-1,2,3,4-tetrahydropyrrolo[1,2-a]pyrazine-6-carboxamido)acetamido)phenyl)-2,4-dimethylpyridine 1-oxide] | 0.102 µM |
